In patent US20170274083A1, “NASAL COMPOSITION HAVING ANTI-VIRAL PROPERTIES” (SOFIBEL S.A.S.-A COMPANY ULTIMATELY OWNED BY CHURCH & …, priority 2014, published 2017):

Test system: HRV-A16
Test: Anti-viral effect: inhibition of HRV-A16 replication (viral RNA)
Type: cell-based, human rhinovirus
Conditions: applied 1 h before infection; change in viral RNA; fully differentiated human airway epithelial cells
Experimental: The example 1 composition is tested according to the test of evaluation of the potential activity against HRV-A16 (a rhinovirus responsible for colds) on fully differentiated human airway epithelial cells culture. The compositions are first applied before infection for one hour and the replication is carried out for 4 hours. 3 rinsing steps with the formulations are carried out. The remaining is collected and the RNA is dosed after cell lysis. The same collecting step is carried out 24 hours after and the same dosing step is carried out. The percentage expressed the changes in viral RNA, resulting in the % of inhibition of HRV-A16 replication, leading to the anti-viral efficacy. The tested composition is tested against rupintrivir (a known antiviral compound, providing an almost complete response).

**Q.** With `CCOC(=O)/C=C/[C@H](C[C@@H]1CCNC1=O)NC(=O)[C@@H](CC(=O)[C@@H](NC(=O)c1cc(C)on1)C(C)C)Cc1ccc(F)cc1` [Rupintrivir, rupintrivir] as the compound, how does the “Inhibition (%) of HRV-A16 replication” value read?
**A.** 99.62%
